US11464762B2, “Carcinogenesis inhibitor” (NATIONAL CANCER CENTER, priority 2017, dated 2022)

Tests used:
CDK4 = assay: Expression level of cell proliferation-associated factor mRNA (realtime-PCR), CDK4; type: in vivo, mouse; settings: non-polyp part of small intestine mucosa, Min mice, 1000 ppm in feed, GAPDH-normalised, control group = 1.00, n=3
Protocol: (§1) (1) mRNA Extraction from the Intestinal Polyp Part and Non-Polyp Part, and cDNA Synthesis
(§2) TRIsol (Invitrogen) (500 μL) was added to a polyp part and a non-polyp part of small intestine mucosa of mouse of the control group and the 1000 ppm test substance-administering group scraped in Test Example 1. After 100 μL of chloroform was added thereto and mixed therewith, the mixture was centrifuged (12000 rpm for 2 minutes) and the supernatant liquid was recovered therefrom. The recovered supernatant liquid was added 250 μL of ethanol and RNA was extracted therefrom and purified using a column (QIAGEN).
(§3) After DNAse (Invitrogen) treatment, cDNA was prepared from 1 μg of the total RNA using High-Capacity cDNA Reverse Transcription Kits (Applied Biosystems). […]
(§4) Expression level of mRNA of the cell proliferation-associated factors [c-Myc, CDK4 and cyclin D1] was measured by a realtime-PCR method using the cDNA being synthesized from the total RNA extracted in the above (1). With regard to the polyp part, the mRNA expression level only of c-Myc was measured.
(§5) As to the PCR primers for each of the cell proliferation-associated factors, there were used c-Myc [Forward: […] […] Each of the resulted measured values was divided by the measured value of the glyceraldehyde-3-phosphate dehydrogenase (GAPDH) gene which was an internal standard whereupon the relative values were calculated. […]

[1] = Feed and body weight of Min mice during the administration period; type: in vivo, mouse; settings: 500 and 1000 ppm in feed for eight weeks versus control group
Protocol: (§6) The experimental animals were randomly classified into a control group, a group to which 500 ppm of a test substance was administered and a group to which 1000 ppm of a test substance was administered. In each group, 10 mice per group were organized in such a manner that average body weight in the group became same. The control group was administered with a basic feed only and each of the 500 ppm test substance-administering group and the 1000 ppm test substance-administering group was administered with a mixed feed of a test substance (Compound 21) in 500 and 1000 ppm concentrations, respectively for eight weeks.

[2] = Evaluation of safety, repeated oral administration to healthy male adults; type: in vivo, human; settings: oral 400 mg single dose, 17 administrations over seven days, six cases
Protocol: Eight healthy male adults (21 to 24 years age) (consisting of six cases being administered with the test substance and two cases being administered with the placebo) were used as the subjects and the present compound was orally administered repeatedly to evaluate the safety. A test substance (Compound 21) was orally administered in the single dose of 400 mg in such a manner that, on the first and the seventh day of the administration, once-daily in the morning on an empty stomach and, on the second to the sixth days of the administration, thrice-daily on an empty stomach (at 09:00, 14:00 and 19:00) together with 150 mL of water each (17 administrations in total).

cyclin D1 = assay: Expression level of cell proliferation-associated factor mRNA (realtime-PCR), cyclin D1; type: in vivo, mouse; settings: non-polyp part of small intestine mucosa, Min mice, 1000 ppm in feed, GAPDH-normalised, control group = 1.00, n=3
Protocol: as §1, §2, §3, §4, §5

[3] = test system: PCNA antibody-positive cells in polyp part of mouse small intestine mucosa; assay: Cell proliferation ability in polyp part of intestinal mucosa (PCNA immunostaining); type: in vivo; settings: Min mice, 1000 ppm in feed, n = 14 (control group 71.26)
Protocol: The formalin-fixed slices embedded in paraffin prepared from the polyp part of mouse small intestine mucosa of the control group and of the 1000 ppm test substance-administering group being excised in Test Example 1 were dipped in xylene for five minutes×three times for the purpose of deparaffinization and were dipped in 99.5% alcohol for five minutes×three times to enhance the hydrophilicity followed by dipping into distilled water for 10 minutes. After that, the slices were dipped into a methanol solution containing 0.3% of hydrogen peroxide to conduct a deactivation treatment for the endogenous peroxidase. Further, 1 mL of a 0.3% Triton [Registered trade mark] X-100 solution containing 2% of horse serum (a phosphate-buffered saline (PBS) containing 0.3% of Triton) followed by blocking for 30 minutes.
To the slices was added an anti-mouse proliferating cell nuclear antigen (PCNA) antibody (Calbiochem [Registered trade mark]) diluted to an extent of 100 times and a primary antibody response was conducted overnight at 4° C. […] The ratio of the PCNA antibody-positive cell numbers to the total cell numbers in the microscopic field in each group was also calculated. […]

c-Myc = assay: Expression level of cell proliferation-associated factor mRNA (realtime-PCR), c-Myc; type: in vivo, mouse; settings: Min mice, 1000 ppm in feed, GAPDH-normalised, control group = 1.00, n=3
Protocol: as §1, §2, §3, §4, §5

[4] = test system: intestinal polyps of C57BL/6-Apc^Min/+ mouse (Min mouse); assay: Evaluation of intestinal polyp formation in Min mice; type: in vivo; settings: for Number of intestinal polyp, colon / Number of intestinal polyp, small intestine distal segment / Number of intestinal polyp, small intestine middle segment / Number of intestinal polyp, small intestine proximal segment / Number of intestinal polyp, total: mean
Source text: (1) Grouping of Experimental Animals and Administration of a Test Substance
As to an experimental animal, there was used a C57BL/6-Apc^Min/+ mouse (Min mouse) which was a familial adenomatosis coli model. The Min mouse is an Apc (adenomatous polyoisis coli) mutant mouse and an increase in polyp numbers is noted therein with time. It has been also known that the Min mouse is occurred with dyslipidemia in a state of highly oxidative stress. 5-week-old male Min mice were bred and acclimatized in a plastic cage (235×325×170 H mm) (six mice in maximum in a cage) in a laboratory where the temperature, the humidity and the brightness/darkness cycle were set at 24±2° C., 55% and 12 hours, respectively. In the meanwhile, they were freely ingested with filtered water and basic feed (MN-76A, CLEA Japan Inc.).
as §6
(2) Measurement of Numbers of Polyps in the Intestinal Tract
The mice in each group were killed under anesthetization at 13 weeks old and, after laparotomy, the intestinal tract was excised and fixed with formalin. Small intestine was divided into proximal segment (the segment in about 4 cm length from pylorus), middle segment and distal segment, then the polyp numbers in the four segments including colon were counted under a stereomicroscope and the mean value in each group was calculated.

[5] = 500 ppm in feed for eight weeks
[6] = 500 ppm in feed for eight weeks, n = 9
[7] = 1000 ppm in feed for eight weeks
[8] = 1000 ppm in feed for eight weeks, n = 8

## CN1C(=O)NC(=O)C1O (stereo not shown) [Compound 21, 5-Hydroxy-1-methylhydantoin]
CDK4
  Ratio of expression quantity of cell proliferation-associated factor CDK4: 0.47
[1]
  Difference in the feed and in the body weight among the groups during the administration period: No significant difference
[2]
  Abnormal variation in blood pressure, pulse rate, body temperature, hematological test, blood biochemical test and urinary test: no abnormal variation suspected to be related to the present compound
  Clinical symptoms suspected to be related to the compound: no clinical symptom suspected to be related to the present compound
Cyclin D1
  Ratio of expression quantity of cell proliferation-associated factor Cyclin D1: 0.27
[3]
  Ratio of the PCNA antibody-positive cell numbers to the total cell numbers: 58.40%
c-Myc; non-polyp part of small intestine mucosa
  Ratio of expression quantity of cell proliferation-associated factor c-Myc: 0.25
c-Myc; polyp part of small intestine mucosa
  Ratio of expression quantity of cell proliferation-associated factor c-Myc: 0.39
[4]; [5]
  Decrease of polyp numbers in the middle segment of small intestine as compared with the control group: about 37%
  Decrease of total numbers of polyps as compared with the control group: about 17%
[4]; [6]
  Number of intestinal polyp, colon: 1.00
  Number of intestinal polyp, small intestine distal segment: 27.00
  Number of intestinal polyp, small intestine middle segment: 7.33
  Number of intestinal polyp, small intestine proximal segment: 3.89
  Number of intestinal polyp, total: 39.22
[4]; [7]
  Decrease of polyp numbers in the middle segment of small intestine as compared with the control group: ~29%
  Decrease of total numbers of polyps as compared with the control group: about 17%
[4]; [8]
  Number of intestinal polyp, colon: 0.38
  Number of intestinal polyp, small intestine distal segment: 25.63
  Number of intestinal polyp, small intestine middle segment: 8.25
  Number of intestinal polyp, small intestine proximal segment: 5.13
  Number of intestinal polyp, total: 39.38
